Read-outs that look alike come from different tables or passages of the source.
Experiments:
[1] = system: T. cruzi (Tulahuen strain); assay: In vitro anti-T. cruzi evaluation in an intracellular model (trypomastigote and amastigote forms, L929 host cells, β-galactosidase readout); assay type: cell-based, Trypanosoma cruzi; conditions: for IC50: Trypanosoma cruzi, TULAHUEN, L929, 96 h, read-out: IC50 T. cruzi; for SI: selectivity index, L929 cells vs T. cruzi
Protocol: Derivatives 5–10 were evaluated in vitro against T. cruzi in an intracellular model on the trypomastigote and amastigote forms of the parasite of the Tulahuen strain [20]. This model is interesting because it mimics the life cycle of the parasite, as both clinically relevant forms are present in the environment. The mammalian host cells used were fibroblasts from L929 mice.
This assay was performed as previously described by Buckner et al. (1996) using T. cruzi (Tulahuen strain), which expresses the β-galactosidase gene of Escherichia coli. Infectious trypomastigote forms were obtained by culturing fibroblast monolayers of L929 mice in RPMI-1640 medium (pH 7.2–7.4) without phenol red (Gibco BRL), containing 10% fetal bovine serum and 2 mM glutamine. For the bioassay, 4000 L929 cells in 80 µL of supplemented medium were added to each well of a 96-well microtiter plate. After overnight incubation, 40,000 trypomastigotes in 20 µL were added to the cells and incubated for 2 h. […] The medium was then replaced with compound solutions at 1.0 µg/mL in fresh medium (200 µL), and the plate was incubated for 96 h at 37 °C. After this period, 50 µL of chlorophenol D-galactopyranoside red (500 µM) in 0.5% Nonidet P40 was added to each well, and the plate was incubated for 18 h at 37 °C. After this, the absorbance was measured at 570 nm. Controls with uninfected cells and infected cells treated with benznidazole were performed in parallel. The results are expressed as the percentage of T. cruzi growth inhibition in cells tested with compost compared to infected and untreated cells. The tests were performed in triplicate.

[2] = In vitro cytotoxicity of L929 cells (AlamarBlue); assay type: cell-based, mice; conditions: mouse, four days
Protocol: For this bioassay, 4000 mammalian cells in 200 µL of RPMI-1640 medium (pH 7.2–7.4) (Gibco BRL) plus 10% fetal bovine serum and 2 mM glutamine were added to each well of a 96-well microtiter plate, which was incubated for three days at 37 °C. […] After this period, 20 µL of AlamarBlue^TM was added to each well, and the plate was incubated for another 4–6 h. Then, the absorbance was measured at 570 nm. Controls with cells not treated and treated with benznidazole were performed in parallel, and triplicates were performed on the same plate. The results are expressed as the percent difference in the reduction between treated (CT) and untreated cells (UT) using the following equation:(1) 117.216Abs570 TC−80.586(Abs600 TC)/117.216Abs570 UT−80.586(Abs600 UT) × 100

in vitro [3] = assay type: cell-based; conditions: human
Protocol: (§1) The Lactate Desidrogenase (LDH) Cytotoxicity Detection Kit^PLUS and the Cell Proliferation Reagent WST-1 assays were performed according to the manufacturer’s protocols. The human hepatocellular carcinoma cell line HepG2 was cultured in T25/175 cm^2 flasks with Dulbecco’s modified Eagle’s medium (DMEM, Gibco BRL) supplemented with 10% fetal bovine serum, 3.7 g/L sodium bicarbonate and 100 µg/mL penicillin–streptomycin under standard conditions (37 ± 1 °C, 95% relative humidity and 5% CO2). Cells were split using trypsin-EDTA (0.05%) with phenol red solution (Gibco BRL) and seeded in a 96-well flat-bottomed plate at a density of 1 × 10^4 cells/well. After overnight incubation, the cells were washed with 1X PBS, and the medium was replaced with different compound dilutions (0–5000 µM) in fresh medium (100 µL) followed by 24 h of incubation. DMSO 1% was used as the negative control, and Triton X-100 4% was used as the positive control. For the LDH assay, after treatment, 50 µL of supernatant from each well was transferred to a 96-well flat-bottomed plate, and 50 µL of freshly prepared reaction mixture was added to each well. After 10 min of incubation in the dark at room temperature, 25 µL of stop solution was added to each well, and the absorbance was measured at 492 nm on a microplate reader (Polaris, Celer, MG, Brazil). For the WST-1 assay, after exposure, the supernatant was replaced by 100 µL of WST-1 2% in fresh medium and incubated for 3 h in the dark under standard conditions. The absorbance was measured at 440 nm. […] For cytotoxicity assays, significant differences between the groups were analyzed by one-way ANOVA and Tukey’s post hoc tests (p < 0.01).

in vitro [4] = assay type: cell-based; conditions: human; remark: listed apart in the source
Protocol: as §1

S. typhimurium TA1535 = conditions: for Mutagenicity in the Ames test (verdict): TA1535, absence or presence of metabolic activation
[5] = Tulahuen strain, intracellular trypomastigote and amastigote forms in L929 fibroblasts, 96 h

SMILES	SI [1]	CC50 at 4 days [2] [µM]	CC50 at 24 h (in vitro [3]) [µM]	CC50 at 48 h (in vitro [3]) [µM]	CC50 at 24 h (in vitro [4]) [µM]	CC50 at 48 h (in vitro [4]) [µM]	IF (induction factor) (S. typhimurium TA1535; TA1535, +S9, 0.5 µM)	revertant His+ colonies, mean ± SD (S. typhimurium TA1535; TA1535, +S9, 0.5 µM)	IF (induction factor) (S. typhimurium TA1535; TA1535, +S9, 5 µM)	revertant His+ colonies, mean ± SD (S. typhimurium TA1535; TA1535, +S9, 5 µM)	IF (induction factor) (S. typhimurium TA1535; TA1535, +S9, 50 µM)	revertant His+ colonies, mean ± SD (S. typhimurium TA1535; TA1535, +S9, 50 µM)	revertant His+ colonies, mean ± SD (S. typhimurium TA1535; TA1535, +S9, 500 µM)	Mutagenicity in the Ames test (verdict) (S. typhimurium TA1535)	IF (induction factor) (S. typhimurium TA1535; TA1535, −S9, 0.5 µM)	revertant His+ colonies, mean ± SD (S. typhimurium TA1535; TA1535, −S9, 0.5 µM)	IF (induction factor) (S. typhimurium TA1535; TA1535, −S9, 5 µM)	revertant His+ colonies, mean ± SD (S. typhimurium TA1535; TA1535, −S9, 5 µM)	IF (induction factor) (S. typhimurium TA1535; TA1535, −S9, 50 µM)	revertant His+ colonies, mean ± SD (S. typhimurium TA1535; TA1535, −S9, 50 µM)	other results
O=C(Cn1ccnc1[N+](=O)[O-])NCc1ccccc1 [BZN, benznidazole, reference compound]	1409	2110 ± 270	> 500	> 500	> 500	> 500	1.3	13 ± 1	1.6	17 ± 3	2.1	22 ± 3	31 ± 2	mutagenic	1.5	11 ± 2	1.5	11 ± 5	1.5	11 ± 1	IC50 [1]: 1.5 ± 0.4 µM; CC50 at 72 h (in vitro [3]): > 500 µM; CC50 at 72 h (in vitro [4]): > 500 µM; IF (induction factor) (S. typhimurium TA1535; TA1535, +S9, 500 µM): 2.9; IF (induction factor) (S. typhimurium TA1535; TA1535, +S9, 5000 µM): 3.0; revertant His+ colonies, mean ± SD (S. typhimurium TA1535; TA1535, +S9, 5000 µM): 32 ± 4; IF (induction factor) (S. typhimurium TA1535; TA1535, −S9, 500 µM): 2.5; revertant His+ colonies, mean ± SD (S. typhimurium TA1535; TA1535, −S9, 500 µM): 18 ± 4; IF (induction factor) (S. typhimurium TA1535; TA1535, −S9, 5000 µM): 4.9; revertant His+ colonies, mean ± SD (S. typhimurium TA1535; TA1535, −S9, 5000 µM): 36 ± 5
O=[N+]([O-])c1ncn(CC(O)c2ccc(F)cc2F)n1 (stereo not drawn) [Compound 8, 1-(2,4-Difluorophenyl)-2-(3-nitro-1H-1,2,4-triazol-1-yl)ethanol]	3077	1200 ± 0.01	> 500	426 ± 66	> 500	> 500	1.0	11 ± 1	1.1	12 ± 4	1.3	14 ± 4	15 ± 5	not mutagenic	1.0	21 ± 2	1.0	26 ± 3	1.0	23 ± 6	IC50 [1, 5]: 0.39 ± 0.01 µM; times more potent against T. cruzi than 9 ([1]; ratio of IC50 T. cruzi to 2-nitroimidazole 9): approximately 8; fold more potent against T. cruzi than BZN ([1]; ratio of IC50 T. cruzi to BZN): ~4; times more potent against T. cruzi than 5 ([1]; ratio of IC50 T. cruzi to carbonyl counterpart 5): more than 4; times more potent against T. cruzi than 10 ([1]; ratio of IC50 T. cruzi to triazole 10): more than 300; fold more selective than BZN ([1]; ratio of selectivity index to BZN): 2; IF (induction factor) (S. typhimurium TA1535; TA1535, +S9, 500 µM): 1.4; IF (induction factor) (S. typhimurium TA1535; TA1535, +S9, 5000 µM): 1.4; revertant His+ colonies, mean ± SD (S. typhimurium TA1535; TA1535, +S9, 5000 µM): 15 ± 3; revertant His+ colonies, mean ± SD (S. typhimurium TA1535; TA1535, −S9, 500 µM): Cytotoxic
O=[N+]([O-])c1nccn1CC(O)c1ccc(F)cc1F (stereo not drawn) [Compound 9, 1-(2,4-Difluorophenyl)-2-(2-nitro-1H-imidazol-1-yl)ethanol]	>131	> 400	> 500	> 500	> 500	> 500	1.3	14 ± 2	2.1	23 ± 1	2.2	24 ± 1	Cytotoxic	mutagenic	1.8	14 ± 1	1.8	14 ± 4	2.8	22 ± 1	IC50 [1, 5]: 3.05 ± 0.07 µM; times more potent against T. cruzi than 6 ([1]; ratio of IC50 T. cruzi to 2-nitroimidazole ketone 6): approximately 30; CC50 at 72 h (in vitro [3]): > 500 µM; CC50 at 72 h (in vitro [4]): > 500 µM; IF (induction factor) (S. typhimurium TA1535; TA1535, −S9, 500 µM): 2.0; revertant His+ colonies, mean ± SD (S. typhimurium TA1535; TA1535, −S9, 500 µM): 16 ± 3; revertant His+ colonies, mean ± SD (S. typhimurium TA1535; TA1535, −S9, 5000 µM): Cytotoxic

— article PMC10672842, “Anti-Trypanosoma cruzi Activity, Mutagenicity, Hepatocytotoxicity and Nitroreductase Enzyme Evaluation of 3-Nitrotriazole, 2-Nitroimidazole and Triazole Derivatives” (Molecules, 2023)
